We go through twelve molecules from ChEMBL document CHEMBL1201862, “PubChem BioAssay data set” (2004).

Some test systems named below: SR; MOLT-4; HT-29; A549; CAKI-1; U-251; COLO 205; NCI-H23; CCRF-CEM; NCI-H460; LOX IMVI; Malme-3M; 786-0; NCI-H226; EKVX; OVCAR-5; SK-MEL-28; DU-145; MDA-MB-435.
Holding throughout (assay): growth of human tumour cells (NCI), 48 h

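The compound was tested at five concentrations on cells cultured in 96-well plates, with a 48-hour exposure period. Here, GI50 denotes the concentration required for 50% inhibition of growth.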 Activity calls are given as the source filed them. Rule as the data show it: active = GI50 up to about 1.1 µM and inactive = higher.

With `COC(=O)C1Cc2c([nH]c3ccccc23)C(c2ccccc2O)N1Cc1ccccc1` (stereo unspecified), the GI50 was 28.4 µM (inactive) in the assay on SR; 42.1 µM (inactive) in the assay with MOLT-4; 28.2 µM (inactive) in the assay on HT-29; 32 µM (inactive) in the assay on A549; 22.2 µM (inactive) in the assay with CAKI-1; 20.6 µM (inactive) in the assay with U-251. Besides, the GI50 in the assay with COLO 205 is 41.7 µM (inactive); in the assay with NCI-H23, 44.3 µM (inactive); with CCRF-CEM it was > 46.5 µM (inactive); with NCI-H460, 30.8 µM (inactive); in the assay with LOX IMVI, 44.9 µM (inactive); in the assay on Malme-3M, > 31.6 µM (inactive). In addition, the GI50 in the assay with 786-0 was 20.7 µM (inactive); in the assay on NCI-H226 it was 35.7 µM (inactive); with EKVX, > 31.6 µM (inactive); in the assay on OVCAR-5, > 46.5 µM (inactive); in the assay on SK-MEL-28 it was > 31.6 µM (inactive).

For the molecule `COc1ccc(C)cc1Nc1nnc(-c2ccc(N)cc2)s1`, the GI50 in the assay with SR was 38.4 µM (inactive); in the assay with MOLT-4, 35.3 µM (inactive); in the assay on HT-29, 48.3 µM (inactive); in the assay on A549, 7.53 µM (inactive); in the assay with CAKI-1, 73.3 µM (inactive); with COLO 205 it was 80.5 µM (inactive). In addition, the GI50 in the assay on NCI-H23 was 88.1 µM (inactive); in the assay on DU-145 it was > 100 µM (inactive); with CCRF-CEM, 41 µM (inactive); with NCI-H460, 61.8 µM (inactive); in the assay on LOX IMVI, 39.4 µM (inactive); in the assay with Malme-3M it was > 100 µM (inactive). Also, the GI50 in the assay on 786-0 was 70.1 µM (inactive); with NCI-H226, 44.9 µM (inactive); in the assay on EKVX, 2.65 µM (inactive); with MDA-MB-435, 33.3 µM (inactive); in the assay on OVCAR-5 it was 68.7 µM (inactive); in the assay with SK-MEL-28, > 100 µM (inactive).

Turning to `COc1ccc(OC)c(NC(=O)C(=O)NNC(=O)c2sc(NNC(C)=O)nc2C)c1`, the GI50 was 32.1 µM (inactive) in the assay on SR; 18.7 µM (inactive) with MOLT-4; 35.6 µM (inactive) with HT-29; 31.2 µM (inactive) in the assay on A549; 41.3 µM (inactive) in the assay on CAKI-1; 36.6 µM (inactive) in the assay on U-251. Also, the GI50 was 21.8 µM (inactive) in the assay on NCI-H23; 16.9 µM (inactive) in the assay with CCRF-CEM; 30.8 µM (inactive) with NCI-H460; 26.2 µM (inactive) with LOX IMVI; 49.2 µM (inactive) with Malme-3M; 35.6 µM (inactive) with 786-0. Moreover, the GI50 was 32.7 µM (inactive) in the assay on NCI-H226, 37.5 µM (inactive) in the assay with EKVX, 72.4 µM (inactive) in the assay with OVCAR-5 and 61.2 µM (inactive) with SK-MEL-28.

On to `C=C1C(=O)OC2/C=C(\C)C3OC3/C=C(/C(=O)OC)C(O)C(OC(=O)C3(C)OC3C)C12` (stereo unspecified), for which the GI50 with SR was 0.566 µM (active); in the assay on MOLT-4, 0.681 µM (active); in the assay with HT-29, 1.65 µM (inactive); in the assay on A549, 15.3 µM (inactive); in the assay on CAKI-1, 1.08 µM (active); in the assay with U-251, 4.58 µM (inactive). In addition, the GI50 in the assay with COLO 205 was 1.27 µM (inactive); with NCI-H23, 1.85 µM (inactive); in the assay on CCRF-CEM, 0.397 µM (active); with NCI-H460, 5.41 µM (inactive); with LOX IMVI, 1.76 µM (inactive); with Malme-3M, 1.52 µM (inactive). Further, the GI50 in the assay with 786-0 was 1.74 µM (inactive); in the assay with NCI-H226, 15.1 µM (inactive); with EKVX, 2.58 µM (inactive); with OVCAR-5 it was 16.7 µM (inactive); in the assay with SK-MEL-28 it was 1.52 µM (inactive).

Take `O=c1c2ccccc2nc(-c2ccccc2)n1NC(=S)Nc1ccc(Cl)cc1[N+](=O)[O-]`: the GI50 was 33.3 µM (inactive) with SR; 73.3 µM (inactive) in the assay on MOLT-4; 69.3 µM (inactive) in the assay on HT-29; 67.3 µM (inactive) in the assay with A549; > 100 µM (inactive) in the assay with CAKI-1; 80.4 µM (inactive) in the assay with U-251. The GI50 with COLO 205 was 51.5 µM (inactive); in the assay on NCI-H23 it was > 100 µM (inactive); in the assay with CCRF-CEM it was 62.4 µM (inactive); in the assay on NCI-H460, > 100 µM (inactive); in the assay on LOX IMVI it was 56.8 µM (inactive); in the assay on Malme-3M it was > 100 µM (inactive). The GI50 in the assay with 786-0 was > 100 µM (inactive); with NCI-H226 it was 20.3 µM (inactive); in the assay with OVCAR-5 it was > 100 µM (inactive); in the assay with SK-MEL-28, 21.7 µM (inactive).

`CC(=O)C1Cn2c(nc3ccccc32)C[Se]1` (stereo unspecified): the GI50 was 3.1 µM (inactive) with SR; 2.29 µM (inactive) in the assay on MOLT-4; 7.48 µM (inactive) in the assay on HT-29; 19.8 µM (inactive) with A549; 2.19 µM (inactive) with CAKI-1; 2 µM (inactive) in the assay with U-251. The GI50 in the assay with COLO 205 is 16.5 µM (inactive); with NCI-H23, 2.75 µM (inactive); with CCRF-CEM it was 3.49 µM (inactive); in the assay with NCI-H460, 4.15 µM (inactive); in the assay with LOX IMVI, 4.29 µM (inactive); in the assay on Malme-3M, 2.47 µM (inactive). In addition, the GI50 is 3.32 µM (inactive) with 786-0; 3.72 µM (inactive) in the assay with NCI-H226; 15 µM (inactive) with EKVX; 3.05 µM (inactive) in the assay with OVCAR-5; 2.98 µM (inactive) in the assay on SK-MEL-28.

For `C/C=C1\CNC1C(=O)O` (stereo unspecified), the GI50 in the assay on HT-29, in the assay on A549, in the assay on CAKI-1, in the assay on COLO 205, in the assay on NCI-H23 and with CCRF-CEM was > 100 µM (inactive) in each case. The GI50 in the assay on NCI-H460, with LOX IMVI, with Malme-3M, with 786-0, in the assay on EKVX and in the assay with MDA-MB-435 was > 100 µM (inactive) in each case. The GI50 in the assay on OVCAR-5 and in the assay on SK-MEL-28 was > 100 µM (inactive) throughout.

Turning to `COCCN1C2=CCCCC2=Nc2c(N)nc(N)nc21`, the GI50 in the assay on SR, in the assay on MOLT-4, in the assay on HT-29, in the assay on A549, in the assay with CAKI-1 and in the assay on U-251 was > 100 µM (inactive) in each case. For the same molecule, the GI50 with COLO 205, in the assay on NCI-H23, with CCRF-CEM, with NCI-H460, with LOX IMVI and in the assay with Malme-3M was > 100 µM (inactive) throughout. The GI50 in the assay with 786-0, in the assay with NCI-H226, in the assay on OVCAR-5 and with SK-MEL-28 was > 100 µM (inactive) each time.

With `C=C[C@@H]1C(CO)=CCC2[C@H]1CCC1C(C)(C)C(=O)CC[C@]21C` (stereo partly specified), the GI50 with SR, in the assay with MOLT-4, with HT-29, in the assay with A549, in the assay with CAKI-1 and with U-251 was > 100 µM (inactive) throughout. The GI50 in the assay with COLO 205, with NCI-H23, in the assay on DU-145, in the assay with CCRF-CEM, in the assay with NCI-H460 and in the assay on LOX IMVI was > 100 µM (inactive) each time. Also, the GI50 in the assay with Malme-3M, in the assay with 786-0, with NCI-H226, in the assay on EKVX, in the assay with MDA-MB-435 and in the assay with OVCAR-5 was > 100 µM (inactive) throughout. Besides, the GI50 in the assay on SK-MEL-28 was > 100 µM (inactive).

Turning to `CCC[C@H]1O[C@@H]2CC(=O)O[C@@H]2C2=C1C(=O)C=CC2=O`, the GI50 is 16.7 µM (inactive) in the assay on SR; 3.32 µM (inactive) with MOLT-4; 22 µM (inactive) in the assay on HT-29; 32.6 µM (inactive) in the assay with A549; 19.2 µM (inactive) in the assay with CAKI-1; > 39.4 µM (inactive) in the assay on U-251. In addition, the GI50 with COLO 205 is 3.38 µM (inactive); with NCI-H23, 13.6 µM (inactive); in the assay on CCRF-CEM it was 3.92 µM (inactive); with NCI-H460, > 100 µM (inactive); in the assay with LOX IMVI, 21 µM (inactive); in the assay with Malme-3M, 18.2 µM (inactive). In addition, the GI50 is 16.3 µM (inactive) in the assay with 786-0; 13.7 µM (inactive) in the assay on NCI-H226; > 44.1 µM (inactive) in the assay on EKVX; 19.7 µM (inactive) in the assay with OVCAR-5; 17.2 µM (inactive) in the assay on SK-MEL-28.

For the molecule `COC1(c2ccc(Cl)cc2)SC=C(C)n2c1noc2=O` (stereo unspecified), the GI50 in the assay on SR was > 100 µM (inactive); in the assay on MOLT-4, > 100 µM (inactive); with HT-29, 33.8 µM (inactive); in the assay with A549 it was > 100 µM (inactive); with CAKI-1 it was > 100 µM (inactive); with U-251, > 100 µM (inactive). For the same molecule, the GI50 in the assay on COLO 205, with NCI-H23, in the assay on DU-145, with CCRF-CEM, with NCI-H460 and in the assay with LOX IMVI was > 100 µM (inactive) each time. Moreover, the GI50 in the assay on Malme-3M, in the assay on 786-0, in the assay with EKVX, with MDA-MB-435, in the assay with OVCAR-5 and with SK-MEL-28 was > 100 µM (inactive) each time.

As for `c1cc2[se][se]c3c4cccc5[se][se]c(c(c1)c23)c54`, the GI50 in the assay on SR, in the assay on MOLT-4, in the assay on HT-29, in the assay on A549, in the assay with CAKI-1 and in the assay with U-251 was > 100 µM (inactive) each time. Further, the GI50 with COLO 205, with NCI-H23, in the assay with CCRF-CEM, in the assay with NCI-H460, in the assay with LOX IMVI and in the assay with Malme-3M was > 100 µM (inactive) each time. In addition, the GI50 in the assay on 786-0, with NCI-H226, in the assay with OVCAR-5 and in the assay on SK-MEL-28 was > 100 µM (inactive) each time.
